How the values were obtained:
Male Swiss mice [1] = experiment: Hot plate method, analgesic activity in mice; assay type: in vivo; settings: for % response time increase on hot plate: 20 μmol/kg, oral adm., n = 20-40; for % response time increase: hot plate, 15 mg/kg, intraperitoneal adm., n = 20
Procedure: The method that was used is described by Eddy N. B. and Leimbach D. (J. Pharm. Exp. Ther. 107: 385-393, 1953). The analgesic effect of the products was evaluated analysing the behaviour of the animals on a hot surface at 55° C.±1° C.
Male Swiss mice weighing 20-25 g were used. The compounds being tested were administered orally or intraperitoneally 1 hour ∘ 30 minutes before starting the test, respectively.
The process consisted of placing the animals on the plate and keeping them in a Plexiglas cylinder 25 cm high and 21 cm […]. The time the animals took to jump off the hot surface was determined. The animals were selected before starting the test so that those that took longer than 10 seconds to jump off were not included in the group that would receive treatment.
30 minutes after administering the product being tested, the test was repeated and the maximum time it took the animals to jump off was again recorded.
The results are expressed as the % of jump time increase calculated as follows: [formula]
In order to determine the duration of the analgesic effect of the orally administered products, the analgesic activity was evaluated on the hot plate 1, 3, 6, 8, and 24 hours after the administration of the product, as well as the control group which received treatment only with the vehicle. The base responses were evaluated at 30 and 5 minutes prior to administering the products.

Male Swiss mice [2] = experiment: Determination of the DL50 (acute single dose oral toxicity); assay type: in vivo; settings: oral adm., 14 days observation
Procedure: (EUDRA/S/87/011, Single Dose Toxicity, European Directive 75/318/EEC) (ICH S4, Toxicity Studies, single dose and repeated dose, CPMP vol III February 87, Single dose toxicity)
Male Swiss mice of the same batch weighing 20-25 g are used in order to estimate the acute toxicity of the products.
Prior to administering the products, the animals were forced to fast for 12 hours with no intake of food but free access to water. Several subgroups of 10 animals were randomly selected and orally given increasing doses of the products in single administration, after which they remained under observation for a period of 14 days with free access to water and food. Finally, the number of dead animals of each subgroup was quantified and the value of the DL50 was calculated (1-2).

SMILES | % response time increase on hot plate (Male Swiss mice [1]) [%] | % response time increase (Male Swiss mice [1]) [%] | DL50 approx. (Male Swiss mice [2]) [mg/kg]
COc1cccc(C2(O)CCCCC2CN(C)C)c1 (single isomer, unassigned) [Tramadol, (1R, 2R or 1S, 2S)-2-[(dimethylamino)methyl]-1-(3-methoxyphenyl) cyclohexano, reference compound] | 87 ± 23 | 218 ± 98 | ~350
CC(C)Cc1ccc(C(C)C(=O)Oc2cccc(C3(O)CCCCC3CN(C)C)c2)cc1 (stereo not drawn) [EXAMPLE 1, 3-(2-dimethylaminomethyl-1-hydroxy-cyclohexyl)-phenyl 2-(4-isobutyl-phenyl)-propionate] | 210 ± 88 | 568 ± 100 | ~900
COc1ccc2cc(C(C)C(=O)Oc3cccc(C4(O)CCCCC4CN(C)C)c3)ccc2c1 (stereo not drawn) [EXAMPLE 2, 3-(2-dim-ethylaminomethyl-1-hydroxy-cyclohexyl)-phenyl 2-(6-methoxy-naphthalen-2-yl)-propionate] |  | 539 ± 50 | 
CN(C)CC1CCCCC1(O)c1cccc(OC(=O)C2CCn3c(C(=O)c4ccccc4)ccc32)c1 (stereo not drawn) [EXAMPLE 3, 3-(2-dimethylaminomethyl-1-hydroxy-cyclohexyl)-phenyl 5-benzoyl-2,3-dihydro-1H-pyrrolizine-1-carboxylate] |  | 416 ± 146 | 
CC(C)Cc1ccc(C(C)C(=O)Oc2cccc(C3=C(CN(C)C)CCCC3)c2)cc1 (stereo not drawn) [EXAMPLE 4, 3-(2-dimethylaminomethyl-cyclohex-1-enyl)-phenyl 2-(4-isobutyl-phenyl)-propionate] |  | 333 ± 134 | 
COc1ccc2cc(C(C)C(=O)Oc3cccc(C4=C(CN(C)C)CCCC4)c3)ccc2c1 (stereo not drawn) [EXAMPLE 5, 3-(2-dimethylaminomethyl-cyclohex-1-enyl)-phenyl 2-(6-methoxy-naphthalen-2-yl)-propionate] |  | 356 ± 151 | 
CN(C)CC1CCCCC1(O)c1cccc(OC(=O)c2ccccc2O)c1 (stereo not drawn) [EXAMPLE 6, 3-(2-dimethylaminomethyl-1-hydroxy-cyclohexyl)-phenyl (RR-SS)-2-hydroxybenzoate] | 248 ± 72 | 546 ± 63 | ~550
CN(C)CC1=C(c2cccc(OC(=O)c3ccccc3O)c2)CCCC1 [EXAMPLE 7, 3-(2-dimethylaminomethyl-cyclohex-1-enyl)-phenyl 2-hydroxybenzoate] |  | 634 ± 42 | 
CN(C)CC1CCCCC1(O)c1cccc(OC(=O)c2ccccc2OC(=O)N(C)C)c1 (stereo not drawn) [EXAMPLE 8, 3-(2-dimethylaminomethyl-1-hydroxy-cyclohexyl)-phenyl (RR—SS)-2-dimethylcarbamoyloxy-benzoate] |  | 327 ± 65 | 

Reference: patent US20030100598A1, “Novel esters derived from (rr,ss)-2-hydroxybenzoate of 3-(2-dimethylaminomethyl-1-hydroxycyclohexyl)phenyl” (priority 1999, published 2003)
